Experimental data as given in paper PMC4078991 (Nature, 2014).

What was measured:
PANX1 [1] = target: T1, PANX1 (Homo sapiens, UniProt Q96RD7); assay type: cell-based; conditions: Jurkat cells 2h anti-Fas, trovafloxacin 20 μM; for effect on outward current of apoptotic cells: at +80mV; for effect on inward current of apoptotic cells: at -50mV
apoptotic Jurkat cells [2] = assay: Formation of apoptotic bodies from apoptotic Jurkat cells; assay type: cell-based; conditions: for formation of apoptotic bodies: Jurkat cells, anti-Fas induced apoptosis; for formation of apoptotic bodies in Jurkat cells expressing PANX1 DN mutant: inhibitors of blebbing
PANX1-GFP = assay: Proteolytic cleavage of PANX1-GFP during apoptosis; assay type: cell-based; conditions: 500 μM
apoptotic Jurkat cells [3] = assay: Time-lapse microscopy of apoptotic cell morphology; assay type: cell-based; conditions: time-lapse imaging
PANX1 [4] = target: T1, PANX1; assay: TO-PRO-3 uptake by apoptotic Jurkat cells; assay type: cell-based; conditions: for inhibition of TO-PRO-3 uptake (PANX1-dependent dye uptake) by apoptotic cells: anti-Fas, compound present during apoptosis induction
Escherichia coli = assay: Bacterial growth assay; assay type: cell-based; conditions: 6h incubation, O.D. at 600 nm
PANX1 [5] = target: T1, PANX1; assay: ATP release from apoptotic cells; assay type: cell-based; conditions: apoptotic Jurkat cells
mouse Panx2 = target: T2, mouse Panx2 (Mus musculus, UniProt Q6IMP4); assay: Whole-cell patch-clamp of Panx2 current in HEK293T cells; assay type: cell-based; conditions: 20 μM
T2 sequence (Q6IMP4 1-677): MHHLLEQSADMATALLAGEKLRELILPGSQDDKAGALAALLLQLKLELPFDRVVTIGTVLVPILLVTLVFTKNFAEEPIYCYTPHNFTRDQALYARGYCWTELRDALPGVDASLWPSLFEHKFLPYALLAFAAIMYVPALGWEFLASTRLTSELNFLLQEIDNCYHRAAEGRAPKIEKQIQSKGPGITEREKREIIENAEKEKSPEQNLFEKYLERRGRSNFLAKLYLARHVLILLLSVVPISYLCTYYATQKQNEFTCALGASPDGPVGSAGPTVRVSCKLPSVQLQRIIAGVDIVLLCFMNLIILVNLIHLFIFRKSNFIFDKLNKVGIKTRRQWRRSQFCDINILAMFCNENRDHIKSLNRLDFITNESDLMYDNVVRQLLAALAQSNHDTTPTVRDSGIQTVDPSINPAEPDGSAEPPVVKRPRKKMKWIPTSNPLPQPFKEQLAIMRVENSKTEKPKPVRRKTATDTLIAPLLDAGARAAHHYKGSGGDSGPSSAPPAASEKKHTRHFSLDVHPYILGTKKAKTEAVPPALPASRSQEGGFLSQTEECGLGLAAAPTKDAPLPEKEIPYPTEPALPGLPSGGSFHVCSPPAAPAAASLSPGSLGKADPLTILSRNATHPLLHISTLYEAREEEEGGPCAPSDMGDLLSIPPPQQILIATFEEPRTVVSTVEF

caspase 3/7 = assay: Caspase 3/7 activation in Jurkat cells undergoing apoptosis; assay type: cell-based; conditions: trovafloxacin 40 μM
[6] = cited from earlier work
connexin 43 (Cx43) = connexin 43 (Cx43) (Homo sapiens, UniProt P17302); assay: Whole-cell patch-clamp of Cx43 current in HEK293T cells; assay type: cell-based; conditions: 20 μM
Sequence of connexin 43 (Cx43) (P17302 2-382 limits assumed, species assumed): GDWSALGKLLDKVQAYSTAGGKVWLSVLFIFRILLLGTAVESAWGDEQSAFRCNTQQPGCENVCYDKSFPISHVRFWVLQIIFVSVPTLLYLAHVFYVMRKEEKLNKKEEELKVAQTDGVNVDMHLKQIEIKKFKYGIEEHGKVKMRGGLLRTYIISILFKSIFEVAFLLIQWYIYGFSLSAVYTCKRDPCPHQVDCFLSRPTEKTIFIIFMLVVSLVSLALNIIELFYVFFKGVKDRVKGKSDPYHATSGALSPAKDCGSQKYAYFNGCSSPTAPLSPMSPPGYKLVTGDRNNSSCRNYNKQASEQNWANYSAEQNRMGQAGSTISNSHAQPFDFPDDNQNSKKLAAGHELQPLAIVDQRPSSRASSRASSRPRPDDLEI

apoptotic thymocytes = assay: In vivo model of thymic apoptosis; parameters: species or system mouse; conditions: wild-type mice, administered with dexamethasone
[7] = cited from earlier work; remark: listed apart in the source
primary thymocytes = assay type: cell-based, mouse; conditions: 10 μM

T1 sequence (Q96RD7 1-379 limits assumed): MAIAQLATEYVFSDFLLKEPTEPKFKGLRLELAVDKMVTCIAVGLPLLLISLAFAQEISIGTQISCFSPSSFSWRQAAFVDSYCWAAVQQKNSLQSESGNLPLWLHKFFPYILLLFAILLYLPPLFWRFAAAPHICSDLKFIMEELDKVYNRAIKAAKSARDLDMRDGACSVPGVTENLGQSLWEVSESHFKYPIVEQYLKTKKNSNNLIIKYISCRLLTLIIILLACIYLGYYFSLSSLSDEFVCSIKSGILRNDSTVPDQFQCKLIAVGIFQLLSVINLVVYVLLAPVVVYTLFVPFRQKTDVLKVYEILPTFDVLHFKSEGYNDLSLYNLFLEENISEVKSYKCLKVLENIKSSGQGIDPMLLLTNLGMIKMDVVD

Molecule: CC1(C)[C@@H](OC(=O)CCC(=O)O)CC[C@]2(C)[C@H]3C(=O)C=C4[C@@H]5C[C@@](C)(C(=O)O)CC[C@]5(C)CC[C@@]4(C)[C@]3(C)CC[C@@H]12 [CBX, carbenoxolone]
- effect on outward current of apoptotic cells (PANX1 [1]): blocked both inward and outward currents
- effect on inward current of apoptotic cells (PANX1 [1]): blocked both inward and outward currents
- formation of apoptotic bodies (apoptotic Jurkat cells [2]): promoted formation of apoptotic bodies
- proteolytic cleavage of PANX1-GFP during apoptosis (PANX1-GFP): not inhibited
- formation of apoptopodia (string-like structures) by apoptotic cells (apoptotic Jurkat cells [3]): produced long string-like structures

Molecule: C[C@H]1COc2c(N3CCN(C)CC3)c(F)cc3c(=O)c(C(=O)O)cn1c23 [levofloxacin]
- inhibition of TO-PRO-3 uptake (PANX1-dependent dye uptake) by apoptotic cells (PANX1 [4]): did not block PANX1-dependent dye uptake
- Escherichia coli growth (Escherichia coli): inhibit bacterial growth

Molecule: CCCN(CCC)S(=O)(=O)c1ccc(C(=O)O)cc1 [probenecid]
- formation of apoptotic bodies (apoptotic Jurkat cells [2]): promoted formation of apoptotic bodies

Molecule: CN1CCN(c2cc3c(cc2F)c(=O)c(C(=O)O)cn3-c2ccc(F)cc2)CC1 [difloxacin]
- formation of apoptotic bodies (apoptotic Jurkat cells [2]): promoted the formation of apoptotic bodies
- inhibition of ATP release from apoptotic cells (PANX1 [5]): partially inhibited ATP release
- inhibition of TO-PRO-3 uptake (PANX1-dependent dye uptake) by apoptotic cells (PANX1 [4]): partially inhibited ATP release and TO-PRO-3 uptake

Molecule: Cc1ccc2c(c1)C(=O)C1(O)CCN(c3ccccc3)C1=N2 (centres unmarked) [blebbistatin]
- formation of apoptotic bodies in Jurkat cells expressing PANX1 DN mutant (apoptotic Jurkat cells [2]): reduce the formation of apoptotic bodies

Molecule: Cc1ccc(C(=O)Nc2ccc(S(=O)(=O)O)c3cc(S(=O)(=O)O)cc(S(=O)(=O)O)c23)cc1NC(=O)c1cccc(NC(=O)Nc2cccc(C(=O)Nc3cc(C(=O)Nc4ccc(S(=O)(=O)O)c5cc(S(=O)(=O)O)cc(S(=O)(=O)O)c45)ccc3C)c2)c1 [suramin]
- formation of apoptotic bodies (apoptotic Jurkat cells [2]): did not enhance formation of apoptotic bodies

Molecule: N[C@@H]1[C@H]2CN(c3nc4c(cc3F)c(=O)c(C(=O)O)cn4-c3ccc(F)cc3F)C[C@@H]12 [trovafloxacin]
- effect on outward current of apoptotic cells (PANX1 [1]): minimal effect on outward current
- effect on inward current of apoptotic cells (PANX1 [1]): rapidly inhibited the inward current
- formation of apoptotic bodies (apoptotic Jurkat cells [2]): promoted the formation of apoptotic bodies in a concentration-dependent manner
- inhibition of PANX2 current (mouse Panx2): did not inhibit
- inhibition of ATP release from apoptotic cells (PANX1 [5]): inhibited ATP release
- caspase 3/7 activation during apoptosis (caspase 3/7): did not inhibit caspase 3/7 activation
- inhibition of TO-PRO-3 uptake (PANX1-dependent dye uptake) by apoptotic cells (PANX1 [4]): potent inhibitor of TO-PRO-3 uptake
- TO-PRO-3 uptake after acute treatment of cells already undergoing apoptosis (PANX1 [4]; compound added post induction of apoptosis, 20 min): acutely blocked TO-PRO-3 uptake
- concentrations normally achieved in human plasma [6]: 2 to 10 µM
- Escherichia coli growth (Escherichia coli): inhibit bacterial growth
- inhibition of connexin 43 gap junction current (connexin 43 (Cx43)): did not inhibit
- fragmentation of apoptotic thymocytes in vivo (SSC high particles) (apoptotic thymocytes): promoted the fragmentation of the apoptotic thymocytes
- side effects linked to use in patients [7]: serious adverse side effects
- formation of apoptopodia (string-like structures) by apoptotic cells (apoptotic Jurkat cells [3]): produced long string-like structures

Molecule: apyrase
- formation of apoptotic bodies (apoptotic Jurkat cells [2]): did not promote the formation of apoptotic bodies

Molecule: C[C@@H](N)[C@H]1CC[C@H](C(=O)Nc2ccncc2)CC1 [Y-27632]
- formation of apoptotic bodies in Jurkat cells expressing PANX1 DN mutant (apoptotic Jurkat cells [2]): reduce the formation of apoptotic bodies
- enhanced formation of apoptotic bodies in apoptotic thymocytes from mice with PANX1 deficiency (primary thymocytes): blunted

Molecule: NC1CCN(c2nc3c(cc2F)c(=O)c(C(=O)O)cn3-c2ccc(F)cc2F)C1 (centres unmarked) [tosulfoxacin, tosufloxacin]
- formation of apoptotic bodies (apoptotic Jurkat cells [2]): promoted the formation of apoptotic bodies
- inhibition of ATP release from apoptotic cells (PANX1 [5]): partially inhibited ATP release
- inhibition of TO-PRO-3 uptake (PANX1-dependent dye uptake) by apoptotic cells (PANX1 [4]): partially inhibited ATP release and TO-PRO-3 uptake

Molecule: C=C1[C@@H](C)[C@H]2[C@H](Cc3ccccc3)NC(=O)[C@]23[C@H](OC(C)=O)/C=C/[C@@](C)(O)C(=O)[C@@H](C)C/C=C/[C@H]3[C@@H]1O [cytochalasin D]
- formation of apoptotic bodies in Jurkat cells expressing PANX1 DN mutant (apoptotic Jurkat cells [2]): reduce the formation of apoptotic bodies

Molecule: O=C(O)c1cn(C2CC2)c2cc(N3CCNCC3)c(F)cc2c1=O [ciprofloxacin]
- Escherichia coli growth (Escherichia coli): inhibit bacterial growth
